For data set [1] the following is noted: for Solubility (mass %): phenol/acetone/water (50/50/5) weight mixture; for times more soluble than potassium sulfate: phenol/acetone/water (50/50/5). The method, then:
25 g of test solvent are placed in a 50 mL three-necked flask equipped with a condenser, a thermometer and a magnetic stirrer. The solvent is brought to the desired temperature and the alkanesulfonic acid salt is then added portionwise until cloudiness appears, indicating saturation of the medium.
The solubility is calculated in the following manner:
% salt solubility=m/(m+M)×100
with m=mass of dissolved salt, M=mass of solvent
1. Solubility of the Salts in a Phenol/Acetone/Water (50/50/5) Weight Mixture:
A first measurement is taken at 20° C. at atmospheric pressure, and a second measurement is then taken at 60° C. […] 1.1 Potassium Salts

For data set [2] the following is noted: for Solubility (mass %): phenol/water (95/5) weight mixture; for times more soluble than potassium sulfate: phenol/water (95/5).
Protocol: Solubility of the Salts in a Phenol/Water (95/5) Weight Mixture:
A first measurement is taken at 55° C. at atmospheric pressure, and a second measurement is then taken at 100° C.

One molecule from patent US20160251289A1, “USE OF ALKANE SULFONIC ACID FOR PREPARING PHENOLIC ALCOHOL” (ARKEMA FRANCE, priority 2013, published 2016) can be followed below.

Like-named read-outs stand apart in the source and are kept apart here.

`CS(=O)(=O)[O-].[K+]` [CH3SO3K, potassium methanesulfonate]: the “Solubility (mass %)” value in data set [1] (20° C., atmospheric pressure) is 0.80% mass %; in data set [1] (60° C.), 0.80% mass %; in data set [2] (55° C., atmospheric pressure), 1.90% mass %; in data set [2] (100° C.) it was 2.40% mass %. Further, the “times more soluble than potassium sulfate” value is “more than 6.7 times” in data set [1] (at 20° C.), “more than 6.7 times” in data set [1] (at 60° C.), 15 times in data set [2] (printed as at 20° C.) and 8 times in data set [2] (printed as at 60° C.).
